From patent US12391647B2, “Benzamide compound and preparation method, use, and pharmaceutical composition thereof” (INSTITUTE OF MATERIA MEDICA, CHINESE ACADEMY OF MEDICAL …, priority 2018, dated 2025) come the findings set out here.

Assay [1] has as its system human prostate cancer cell DU145. The assay is described as follows: MTT assay, survival rate of tumor cells (antiproliferative activity). The note with it: DU-145, 72 h, read-out: Antiproliferative activity against human prostate cancer cell DU145, IC50. It counts as cell-based. On the procedure:
DU145 cells (human prostate cancer cells) in logarithmic growth phase were digested with 0.25% trypsin-EDTA to prepare single cell suspension, which was inoculated into 96-well plate overnight according to 1500 cells/well/100 μL, and fresh medium containing different concentrations of compounds to be tested and corresponding solvent control was added, and 100 μL (DMSO final concentration <0.1%) was added to each well, and the 96-well plate was further cultured at 37° C. for 72 h. 20 μL of freshly prepared PBS solution containing 5 mg/mL MTT was added to each well, and the 96-well plate was further cultured for 4 h. After the supernatant was discarded, 180 μL of DMSO was added to each well to dissolve the MTT formazan precipitate. After the 96-well plate was shaked and mixed by a micro oscillator, the optical density (OD) at the detection wavelength of 570 nm was measured. With DMSO-treated tumor cells as the control group, the inhibition rate on the growth of tumor cells of the compound to be tested was calculated from the following formula, and the IC50 was calculated according to the median-effect equation. Inhibition rate (%)=(average OD value of control group-average OD value of dosing group)/average OD value of control group×100%

The subject of assay [2] is STAT3 transcription. Description: STAT3 specific luciferase double reporter gene experiment in DU145 cells. The format is cell-based, human. The following applies: for STAT3 transcription inhibition activity: DU145, STAT3 specific luciferase double reporter; for IC50: Homo sapiens, DU-145, DU145 with high STAT3 expression, 24 h. The protocol: The luciferase plasmids STAT3-TA-Luc and pGMLR-TK were transiently co-transfected into DU145 cells by Lipofectamine 3000. After staying overnight, different concentrations of compounds to be tested were added and cultured for 24 hours. The supernatant was discarded, and the residue was washed twice with PBS, and then 20 μL of lysis solution was added to shake and lyse for 5 min. The supernatant was transferred to a 96-well Costar whiteplate, and 70 μL of Dual-Glo luciferase substrate solution was added, and the relative fluorescence intensity of firefly luciferase was detected, and then 70 μL of Stop-Glo substrate solution was added, and the relative fluorescence intensity of sea kidney luciferase was detected, the normalized value was obtained, and the inhibition rate and IC50 value were calculated.

The test system of assay [3] is p-STAT3 (Tyr705). The assay is described as follows: Western blotting of p-STAT3 expression in DU145 cells. The format is cell-based, human. The protocol: DU145 cells treated for 16 h with different concentrations of examples 12, 23, 33 and 34 and DU145 cells in control group were collected and washed twice with pre-cooled PBS. After appropriate amount of RIPA lysate (50 mM Tris-HCl, 1 mM EDTA, 1% Triton X-100, 150 mM NaCl, 0.1% SDS, 1 mM NaF, Na3VO4, protease inhibitor, pH 7.4) was added to lyse for 1 h on ice, the reaction mixture was centrifuged at 4° C., 12,000 rpm for 20 min, and then the supernatant was collected for protein quantification and boiled for denaturation. Equal amount of protein was taken for 10% SDS-PAGE electrophoresis. The specific antibodies of p-STAT3 (Tyr705) and STAT3 were used as primary antibody, which was incubated overnight at 4° C. The corresponding HRP-labeled secondary antibody was used, incubated at room temperature for 2 h, and washed. ECL chemiluminescence substrate reaction solution was added to develop in gel imaging system, and the image was saved. (3-actin was used as internal reference.
(In western blotting, separated proteins are transferred to a membrane and probed.)

The subject of assay [4] is xenograft tumor of human prostate cancer DU145. The assay is described as follows: Xenotransplantation efficacy study in nude mice. The format is in vivo. The note with it: for Tumor growth inhibition: oral, DU145 xenograft; for inhibitory effect on the growth of xenograft tumor: subcutaneous DU145 xenograft. The protocol: Tumor cells of human prostate cancer DU145 were collected under aseptic conditions, and the cell density was adjusted to 1×10^6 cells/mL with sterilized normal saline, and then 0.2 mL of which was inoculated subcutaneously in the axillary back of nude mice. When the tumor grew to 1 cm in diameter, it was taken out under aseptic conditions, cut into tumor blocks with the size of 1 mm×1 mm, and inoculated subcutaneously in the axillary back of nude mice. Two weeks later, after the tumor grew to 100˜300 mm^3, the animals were randomly divided into groups and began to be administered (recorded as day 0). The compound to be tested is administered orally. The animals were weighed twice a week and the length and width of tumor were measured with vernier caliper. After the experiment, the nude mice were dislocated and killed, and the tumor tissues were stripped, weighed and photographed. Finally, the tumor inhibition rate was calculated, and the anti-tumor effect was evaluated by the tumor inhibition rate. The results are shown in tables 3 and 4 and FIGS. 2 and 3.
The tumor volume is calculated according to the following formula:
Tumor volume=(a×b^2)/2, where a and b represent the length and width of tumor respectively.
The tumor growth inhibition percentage is calculated according to the following formula: tumor growth inhibition (%)=(1−T/C)×100, T is the tumor volume of group of the compound to be tested, and C is the tumor volume of the solvent control group.

Marks after values point to notes of the source that are not given here.

On to `Cc1ccc(S(=O)(=O)Nc2cc(C(=O)NCc3cccnc3)ccc2C)cc1` [Example 1, 4-methyl-3-((4-methylphenyl)sulfonamido)-N-(pyridin-3-ylmethyl) benzamide], for which the results for the IC50 in assay [1] and in assay [2] were 120 ± 30 nM and 7000 ± 1300 nM, respectively. For the same compound, the “STAT3 transcription inhibition activity” value in assay [2] was “obvious STAT3 transcription inhibition activity”. The “inhibitory activity on STAT3 phosphorylation” value (from here on “inhibitory activity”) in assay [3] (DU145, 1 μM concentration) was “obvious inhibitory activity”. Moreover, the Tumor growth inhibition in assay [4] (10 mg/kg × 7 times) is 58.8*** %; in assay [4] (20 mg/kg × 7 times), 62.7*** %; in assay [4] (40 mg/kg × 7 times), 73.5*** %. Further, the “inhibitory effect on the growth of xenograft tumor” value (from here on “inhibitory effect on the growth”) in assay [4] is recorded as “significant inhibitory effects”.

`CCc1ccc(S(=O)(=O)Nc2cc(C(=O)NCc3cccnc3)ccc2C)cc1` [Example 12, 3-((4-ethylphenyl)sulfonamido)-4-methyl-N-(pyridin-3-ylmethyl)benzamide]: the figures for the half-maximal inhibitory concentration (IC50) in assay [1] and in assay [2] were 40 ± 10 nM and 1000 nM, respectively. For the same compound, in assay [2], the “STAT3 transcription inhibition activity” value is on record as “obvious STAT3 transcription inhibition activity”. Besides, the “inhibitory activity” value in assay [3] (DU145, 0.5 μM concentration) is “obvious inhibitory activity”. Moreover, the Tumor growth inhibition in assay [4] (20 mg/kg × 14 times) was 40.4%; in assay [4] (40 mg/kg × 11 times), 79.7*** %. The “inhibitory effect on the growth” value in assay [4] is “significant inhibitory effects”.

Consider `Cc1ccc(S(=O)(=O)Nc2cc(C(=O)NCc3ccc(C)nc3)ccc2C)cc1` [Example 33, 4-methyl-3-((4-methylphenyl)sulfonamido)-N-((6-methylpyridin-3-yl)methyl)benzamide], for which the values for the IC50 in assay [1] and in assay [2] were 8 ± 1 nM and 500 ± 120 nM, respectively. In assay [2], the “STAT3 transcription inhibition activity” value is “obvious STAT3 transcription inhibition activity”. Moreover, in assay [3] (DU145, 0.1 μM concentration), the “inhibitory activity” value was “obvious inhibitory activity”. Besides, the Tumor growth inhibition in assay [4] (20 mg/kg × 6 times) is reported as 63.0** %; in assay [4] (40 mg/kg × 5 times), 80.0** %. Moreover, the “inhibitory effect on the growth” value in assay [4] was “significant inhibitory effects”.

The IC50 is the concentration that gives 50% inhibition.
